# Measurements from US8859625B2, “Methods to prepare penta-1,4-dien-3-ones and substituted cyclohexanones and derivatives with antitumoral and antiparasitic properties, the compounds and their uses” (Universidade Bandeirante de Sao Paulo-Academia, Paulista …, priority 2006, dated 2014).
# Entries after “also recorded” stand apart in the source; their conditions may differ.
# Legend:
# [1] = tested on: B16F10 melanoma; assay: Histological analysis of mice bearing B16F10 dorsal melanoma; type: in vivo, C57BL/6J mice; conditions: diluted in Miglyol 810, 1.15 μg/kg intraperitoneal
# Excerpt: Animals are sacrificed by cervical displacement and the organ fragments were collected from the areas next to the tumoral region, stored in vials containing 10% formaldehyde, and fixed to be submitted to the routine histological processing (PARDI, P C; SIMÕES, M J, BINIVIGNAT, G. O—Ultrastructural study of the remodeling of the stroma of persistent-estrous rats—Rev. Chil. Cienc. Méd. Biol 3(2):61-65, 1993).
# Melanoma B16F10 cell line are implanted at 5×10^4 cells per animal, the ideal dose to obtain the expected results and already proclaimed for this chosen type of animal.
# All animals are treated after Day 14 of tumor implant and, as a result, the sequence of necropsis initiates at Day 15.
# To visualize the results of HB-1 administration, animals are allocated into the following groups:
# 2—HB-1 group, treated with HB-1 diluted in Miglyol 810®, kept under ad libitum feed and water.
# In both cases, the standard administered dose is of 1.15 μg/kg, via intraperitoneal as the elicited administration route.
# Animals are sacrificed by cervical displacement and necropsis is performed with the material immediately collected and transferred to vials containing 10% formaldehyde and, after a 1 to 2 day period, submitted to a routine histological technique Hystology Technique Manual (Manual De Técnicas Para Histologia—Normal E Patológica: Castro De Tolosa, Rodrigues, Behmer E Freitas Neto, Editora Manole 2003).
# After the fixation procedure to the thin plate, the hematoxylin/eosin staining method—Hystology Technique Manual (Manual (Manual De Técnicas Para Histologia—Normal E Patológica: Castro De Tolosa, Rodrigues, Behmer E Freitas Neto, Editora Manole 2003). is applied as it presents good results for tissue and cell morphologic evaluation, mainly to the components in each block.
# After staining, the thin plates are mounted, then analysed by a ZEISS microscopy with a AXIOCAM-MRC3 trade mark digital camera, and the resulting pictures processed by a AXIOVISON REL 4.2 (Carl Zeiss Inc.) software, registered by a computer.
# [2] = tested on: Leishmania (isolate L.C.L.) promastigotes; assay: Promastigote viability by MTT, L.C.L. isolate, Warren medium; type: cell-based; conditions: for O.D. (optical density at 595/690 nm, average of duplicates): Warren medium
# Procedure: (§1) Viability and/or cellular proliferative assays of promastigote and amastigote forms are also performed by the MTT (diphenyl tetrazolium 3-[4,5-dimethylthiazol-2il]2,5-bromide) method as described by Moreira, et al. (Moreira, M. E. C., Del Portillo, H. A., Milder, R. V., Balanco, J. M. F. and Barcinski, M. A. Heat shock induction of apoptosis in promastigotes of the unicellular organism Leishmania (Leishmania) amazonensis, J. Cell Physiol 167, 305-313, 1996), modified.
# (§2) After incubation of parasitic forms with the compounds, as described above, for predetermined periods of time for each experiment (24, 48, 72 hours, etc.), an 1.0 mL aliquot of cellular suspension is collected from each culture tube or vial and transferred to microcentrifuge tubes, where they are centrifuged at 14.000 rpm for 3 minutes, the culture medium is aspirated and discharged. To the sedimented cells are add 200 μL of PBS. After that, the volume in PBS of the cellular suspensions is splitted into two wells (duplicates of 100 μL each) of a 96 well culture plate. To each duplicate, […] of MTT (5 mg/mL stock solution, […]) are added. After 1 h or 1 h 30 min, at a temperature of 22° C. (promastigotes) or 34° C. (amastigotes), 100 μL of 10% SDS are added to each well to interrupt the reaction, to lyse the cells and to dissolve the formazan crystals, resulting in an homogeneous blue solution appropriate to the absorbance measure by a spectrophotometer for culture microplates (3550 BIORAD model, Richmond, Calif.), at 595 nm as test wavelength and 690 nm as the reference wavelength.
# (§3) The optical density (O.D.) values correspond to MTT enzymatic reduction by the metabolic active cells. Consequently, the O.D. is directly proportional to the number of viable cells of the cellular suspension. The progressive increase of O.D. indicates cellular proliferation. Results are expressed as arithmetic average of the optical density duplicates.
# (§4) This experiment is developed in the Warren medium using an initial inoculum of 2.0×10^6/mL of the medium for the isolates. Cultures were at the day 7^h of passage and at the final exponential phase growth (day 6 of incubation). The results of viability determination for the Leishmania (isolate L.C.L.) promastigotes, incubated in Warren medium and in the presence of HB-1, are shown in the next Table and in FIG. 36. The culture final volume is of 5 mL and the MTT reactions are processed in 1 h and 30 minutes of incubation, beginning with 1.0 mL of culture.
# [3] = tested on: promastigotes of Leishmania (isolate D.C.L.); assay: Promastigote viability by MTT, D.C.L. isolate, Warren medium; type: cell-based; conditions: for O.D. (optical density at 595/690 nm wavelength): Warren medium
# Procedure: as §1, §2, §3, §4
# In the next Table and in FIG. 37 are shown the results of viability determination for the promastigotes of Leishmania (isolate D.C.L.) incubated in Warren medium in the presence of HB-1.
# [4] = tested on: amastigote-like forms of Leishmania (L) amazonensis; assay: Viability of amastigote-like forms from axenic culture by MTT; type: cell-based; conditions: for O.D. (optical density): amastigote-like forms
# Procedure: Compounds are solubilized with dimethyl sulfoxide (DMSO) to produce a stock solution from which samples with different concentrations are obtained, by adding the culture medium in sufficient volume as required to attain the first desired concentration with the other concentrations being obtained by serial dilution of this first one, at ratio 2. The cultures are incubated at 22° C. or 34° C. for promastigotes and amastigotes, respectively.
# as §1, §2, §3
# Considering that the amastigote forms are those that multiply inside a vertebrate host and, consequently, are responsible for the disease, it is indispensable to evaluate the viability of these forms when incubated with HB-1.
# This evaluation is performed as previously described and by applying the amastigote forms obtained from an axenic culture.
compound,measurement,setting,value
"COc1cc(C=CC(=O)C=Cc2ccc(O)c(OC)c2)ccc1O [HB-1, 1,5-Bis-(4-hydroxy-3-methoxy-phenyl)-penta-1,4-dien-3-one]",leukocytic infiltrate in dorsal tumor,[1]; 14 day treatment,presence of a leukocytic infiltrate in the peri- and intratumoral portions
same,lung parenchyma alterations,[1]; compared to control group,No alterations of thickness or bronchium epithelium rupture
same,metastatic lesions,[1]; compared to control group,no metastatic lesions were found; also recorded: presence of metastatic masses or nodules was not observed
same,effect in words,[2]; HB-1 5 μg/mL,partial inhibition of proliferation
same,"O.D. (optical density at 595/690 nm, average of duplicates)","[2]; HB-1 5 μg/mL, 24 hours",0.489
same,"O.D. (optical density at 595/690 nm, average of duplicates)","[2]; HB-1 5 μg/mL, 48 hours",0.452
same,"O.D. (optical density at 595/690 nm, average of duplicates)","[2]; HB-1 5 μg/mL, 72 hours",1.346
same,"O.D. (optical density at 595/690 nm, average of duplicates)","[2]; HB-1 5 μg/mL, 96 hours",1.834
same,effect in words,[2]; HB-1 10 μg/mL,leishmaniostatic effect
same,"O.D. (optical density at 595/690 nm, average of duplicates)","[2]; HB-1 10 μg/mL, 24 hours",0.177
same,"O.D. (optical density at 595/690 nm, average of duplicates)","[2]; HB-1 10 μg/mL, 48 hours",0.153
same,"O.D. (optical density at 595/690 nm, average of duplicates)","[2]; HB-1 10 μg/mL, 72 hours",0.176
same,"O.D. (optical density at 595/690 nm, average of duplicates)","[2]; HB-1 10 μg/mL, 96 hours",0.187
same,effect in words,[2]; HB-1 20 μg/mL,leishmanicide
same,"O.D. (optical density at 595/690 nm, average of duplicates)","[2]; HB-1 20 μg/mL, 24 hours",0.056
same,"O.D. (optical density at 595/690 nm, average of duplicates)","[2]; HB-1 20 μg/mL, 48 hours",0.014
same,"O.D. (optical density at 595/690 nm, average of duplicates)","[2]; HB-1 20 μg/mL, 72 hours",0.012
same,"O.D. (optical density at 595/690 nm, average of duplicates)","[2]; HB-1 20 μg/mL, 96 hours",0.012
same,O.D. (optical density at 595/690 nm wavelength),"[3]; HB-1 5 μg/mL, 24 hours",0.299
same,O.D. (optical density at 595/690 nm wavelength),"[3]; HB-1 5 μg/mL, 48 hours",0.682
same,O.D. (optical density at 595/690 nm wavelength),"[3]; HB-1 5 μg/mL, 72 hours",0.785
same,O.D. (optical density at 595/690 nm wavelength),"[3]; HB-1 10 μg/mL, 24 hours",0.083
same,O.D. (optical density at 595/690 nm wavelength),"[3]; HB-1 10 μg/mL, 48 hours",0.059
same,O.D. (optical density at 595/690 nm wavelength),"[3]; HB-1 10 μg/mL, 72 hours",0.017
same,O.D. (optical density at 595/690 nm wavelength),"[3]; HB-1 10 μg/mL, 96 hours",0.016
same,O.D. (optical density at 595/690 nm wavelength),"[3]; HB-1 20 μg/mL, 24 hours",0.025
same,O.D. (optical density at 595/690 nm wavelength),"[3]; HB-1 20 μg/mL, 48 hours",0.012
same,O.D. (optical density at 595/690 nm wavelength),"[3]; HB-1 20 μg/mL, 72 hours",0.016
same,O.D. (optical density at 595/690 nm wavelength),"[3]; HB-1 20 μg/mL, 96 hours",0.013
same,effect in words,[3]; HB-1 from 10 μg/mL,leishmanicide effect
same,inhibition of cellular activity of amastigotes,"[4]; 10 μg/mL and 20 μg/mL, first 24 hours",100%
same,O.D. (optical density),"[4]; HB-1 5 μg/mL, 24 hours",0.16
same,O.D. (optical density),"[4]; HB-1 5 μg/mL, 48 hours",0.012
same,O.D. (optical density),"[4]; HB-1 5 μg/mL, 72 hours",0.012
same,O.D. (optical density),"[4]; HB-1 10 μg/mL, 24 hours",0.010
same,O.D. (optical density),"[4]; HB-1 10 μg/mL, 48 hours",0.014
same,O.D. (optical density),"[4]; HB-1 10 μg/mL, 72 hours",0.014
same,O.D. (optical density),"[4]; HB-1 20 μg/mL, 24 hours",0.009
same,O.D. (optical density),"[4]; HB-1 20 μg/mL, 48 hours",0.012
same,O.D. (optical density),"[4]; HB-1 20 μg/mL, 72 hours",0.016
same,parasites nonviable,"[4]; all assayed concentrations, first 48 hours",100%
